A short description of the data set: Stability of Budesonide on storage, 21-aldehyde and Budesonide content by HPLC. The data set is classed as physicochemical. As to conditions: for Budenoside HPLC Area % / 21 Aldehyde HPLC Area %: double plastic containers. As for the experimental part: The amount of air-sensitive steroid and/or its 21 aldehyde impurity were determined using HPLC. Common HPLC methods for these steroids and their 21-aldehyde impurities may be found in various monographs see for example for Budesonide and its 21-aldehyde impurity a HPLC method is reported in USP31-NF26, page 1565 (detection limit 0.02%), for Fluocinolone acetonide a HPLC method in European Pharmacopoeia (EP) 6.0, page 1915, and for Methylprednisolone a HPLC method in European Pharmacopoeia (EP) 6.0, page 2393.
Budenoside from three production lots prepared in stainless steel reactors was compared to a lot of Budenoside produced in such a reactor and purified with cysteine according to example 5. All samples were stored in double plastic containers. The samples that were not treated with cysteine were kept at a temperature of 25±2° C. and relative humidity of 60%. The sample treated with cysteine was stored at a temperature that varied from about 0° C. to about 40° C. with no humidity control. As is shown in the table below the amount of the 21-aldehyde impurity in the Budenoside purified according to example 5 is less than 0.07% even after 6 years of storage. The aldehyde content of all samples was measured by HPLC.

Where [1] appears, read: production lot 1 of 3 (c1-c2), not treated with cysteine, 25±2° C., 60% relative humidity, 2 years.
[2] abbreviates: production lot 1 of 3 (c1-c2), not treated with cysteine, 25±2° C., 60% relative humidity, 5 years.
Where [3] appears, read: production lot 2 of 3 (c3-c4), not treated with cysteine, 25±2° C., 60% relative humidity, 2 years.
Where [4] appears, read: production lot 2 of 3 (c3-c4), not treated with cysteine, 25±2° C., 60% relative humidity, 5 years.
Setting [5] is: production lot 3 of 3 (c5-c6), not treated with cysteine, 25±2° C., 60% relative humidity, 2 years.
Where [6] appears, read: production lot 3 of 3 (c5-c6), not treated with cysteine, 25±2° C., 60% relative humidity, 5 years.
The mark [7] stands for this setting: lot purified with cysteine, stored at about 0° C. to about 40° C., no humidity control, 6 years.

SMILES strings stand for the structures.

Regarding `CCCC1O[C@@H]2C[C@H]3[C@@H]4CCC5=CC(=O)C=C[C@]5(C)[C@H]4[C@@H](O)C[C@]3(C)[C@]2(C(=O)CO)O1` (stereo partly shown) [Budenoside, Budesonide], the “Budenoside HPLC Area %” value amounted to 99.0 HPLC Area % (production lot 1 of 3 (c1-c2), not treated with cysteine, 25±2° C., 60% relative humidity, 0 years); 98.8 HPLC Area % (production lot 1 of 3 (c1-c2), not treated with cysteine, 25±2° C., 60% relative humidity, 1 year); 98.7 HPLC Area % under setting [1]; 98.4 HPLC Area % under setting [2]; 99.4 HPLC Area % (production lot 2 of 3 (c3-c4), not treated with cysteine, 25±2° C., 60% relative humidity, 0 years); 98.9 HPLC Area % (production lot 2 of 3 (c3-c4), not treated with cysteine, 25±2° C., 60% relative humidity, 1 year). Also, the “Budenoside HPLC Area %” value under setting [3] came out at 98.5 HPLC Area %; the “Budenoside HPLC Area %” value under setting [4] is listed as 97.8 HPLC Area %; the “Budenoside HPLC Area %” value (production lot 3 of 3 (c5-c6), not treated with cysteine, 25±2° C., 60% relative humidity, 0 years) was 99.2 HPLC Area %; the “Budenoside HPLC Area %” value (production lot 3 of 3 (c5-c6), not treated with cysteine, 25±2° C., 60% relative humidity, 1 year) was 99.0 HPLC Area %; the “Budenoside HPLC Area %” value under setting [5] was found to be 99.1 HPLC Area %; the “Budenoside HPLC Area %” value under setting [6] was determined as 98.2 HPLC Area %. In addition, the “21 Aldehyde HPLC Area %” value was 0.1 HPLC Area % under setting [1]; 0.2 HPLC Area % under setting [2]; 0.6 HPLC Area % under setting [3]; 0.9 HPLC Area % under setting [4]; less than 0.1 HPLC Area % under setting [5]; less than 0.2 HPLC Area % under setting [6].

For `CCCC1O[C@@H]2C[C@H]3[C@@H]4CCC5=CC(=O)C=C[C@]5(C)[C@H]4[C@@H](O)C[C@]3(C)[C@]2(C(=O)CO)O1` (stereo partly shown) [Budesonide], under “after 6 years of storage at about 0° C. to about 40° C., no humidity control”, the “amount of the 21-aldehyde impurity” value was “less than 0.07%”. In addition, the “Budenoside HPLC Area %” value (lot purified with cysteine, stored at about 0° C. to about 40° C., no humidity control, 0 years) turned out to be 99.76 HPLC Area %. In addition, under setting [7], the “21 Aldehyde HPLC Area %” value is 0.02 HPLC Area % and the “Budenoside HPLC Area %” value was determined as 99.61 HPLC Area %.

The record behind these values is US20090240049A1, “Purification of air sensitive steroids” (priority 2008, published 2009).
